Experimental data taken from US20050096564A1, “Method of distributing skin care products” (priority 2001, published 2005).

Columns and labels:
[1] = Study 2: vitamin C concentration in ISF and serum of subjects taking oral vitamin supplements; format: in vivo, human; conditions: Study 2, Supplement Yes
Excerpt: The laser made four pores at each collection site.

[2] = in vivo
Excerpt: The studies included non-smoking, female subjects of good health over the age of 35 years and under the age 55 years with skin type of III or less by the Fitzpatrick Skin classification. […] Acceptable subjects were chronologically enrolled in the study following a randomization code describing what treatment would be applied to which dorsal forearm. […] The subject applied a blinded emulsion designated by a letter to one dorsal forearm and an alternative emulsion with a different designation to the opposite arm, twice per day, for three weeks. […] ISF was extracted from the dorsal forearm, volar upper arm, and serum at one week (“Week 2”) and three weeks after dosing (“Week 4”) and two weeks after the cessation of dosing (“Week 6”).
ISF was extracted from both the treatment site (dorsal forearm) as well as an adjacent, untreated site volar upper arm) following one week of therapy and three weeks of therapy. Subjects ended treatment at this point and returned for a final extraction two weeks later.
The ISF collection period lasted between three and six hours, typically four hours.

With `O=C1O[C@H]([C@@H](O)CO)C(O)=C1O` [Vitamin C, vitamin C] as the compound, how does the “Vitamin C concentration, MEAN” value ([1]; Serum) read?
The value was 1.36.

And the “Vitamin C concentration, MEAN” value ([1]; Sun-exposed site ISF)?
The value was 1.00.

And the “Vitamin C concentration, MEAN” value ([1]; Sun-protected site ISF)?
Its value is 1.00.

And the “Influence of topical application on levels at an adjacent, untreated site or the serum” value [2]?
Its value is “does not influence”.

What about the “Response of serum level to topical therapy” value [2] of the same compound?
The value was “did not respond”.
